Measurements: BindingDB's records for doi:10.1016/j.ejmech.2016.03.070 (China Medical University, 2016)

Tests used:
[1] = Inhibition of ABCB1 in human KBVIN cells assessed as potentiation of paclitaxel-induced cytotoxicity by measuring paclitaxel IC50 at 8 uM after 72 hrs by SRB assay (Rvb = 1196.09 +/- 44.8 nM)
[2] = Inhibition of ABCB1 in human KBVIN cells assessed as potentiation of paclitaxel-induced cytotoxicity by measuring paclitaxel IC50 at 10 uM after 72 hrs by SRB assay (Rvb = 1196.09 +/- 44.8 nM)
[3] = Inhibition of ABCB1 in human KBVIN cells assessed as potentiation of vincristine-induced cytotoxicity by measuring vincristine IC50 at 8 uM after 72 hrs by SRB assay (Rvb = 2867.34 +/- 142.36 nM)
[4] = Inhibition of ABCB1 in human KBVIN cells assessed as potentiation of vincristine-induced cytotoxicity by measuring vincristine IC50 at 10 uM after 72 hrs by SRB assay (Rvb = 2867.34 +/- 142.36 nM)
[5] = Inhibition of full length human ABCB1 expressed in Flp-In-293 cells assessed as potentiation of paclitaxel-induced cytotoxicity by measuring paclitaxel IC50 at 8 uM after 72 hrs by SRB assay (Rvb = 644.78 +/- 2.6 nM)
[6] = Inhibition of full length human ABCB1 expressed in Flp-In-293 cells assessed as potentiation of paclitaxel-induced cytotoxicity by measuring paclitaxel IC50 at 10 uM after 72 hrs by SRB assay (Rvb = 644.78 +/- 2.6 nM)
[7] = Inhibition of full length human ABCB1 expressed in Flp-In-293 cells assessed as potentiation of doxorubicin-induced cytotoxicity by measuring doxorubicin IC50 at 8 uM after 72 hrs by SRB assay (Rvb = 914.83 +/- 15.85 nM)
[8] = Inhibition of full length human ABCB1 expressed in Flp-In-293 cells assessed as potentiation of vincristine-induced cytotoxicity by measuring vincristine IC50 at 8 uM after 72 hrs by SRB assay (Rvb = 823.13 +/- 15.79 nM)
[9] = Inhibition of full length human ABCB1 expressed in Flp-In-293 cells assessed as potentiation of doxorubicin-induced cytotoxicity by measuring doxorubicin IC50 at 10 uM after 72 hrs by SRB assay (Rvb = 914.83 +/- 15.85 nM)
[10] = Inhibition of full length human ABCB1 expressed in Flp-In-293 cells assessed as potentiation of vincristine-induced cytotoxicity by measuring vincristine IC50 at 10 uM after 72 hrs by SRB assay (Rvb = 823.13 +/- 15.79 nM)

| Compound | IC50 [1] | IC50 [2] | IC50 [3] | IC50 [4] | IC50 [5] | IC50 [6] | IC50 [7] | IC50 [8] | IC50 [9] | IC50 [10] |
| --- | --- | --- | --- | --- | --- | --- | --- | --- | --- | --- |
| Cc1cccc(-c2coc3c(c(O)cc4occ(-c5cccc(C)c5)c(=O)c43)c2=O)c1 | 63 nM | 52 nM | 390 nM | 96 nM | 60 nM | 40 nM | 664 nM | 53 nM | 586 nM | 39 nM |
| COc1ccc(-c2coc3c(c(O)cc4occ(-c5ccc(OC)cc5)c(=O)c43)c2=O)cc1 |  |  |  |  | 303 nM | 79 nM | 576 nM | 577 nM | 544 nM | 500 nM |
| COc1ccc(-c2coc3c(c(O)cc4occ(-c5ccc(OC)c(OC)c5)c(=O)c43)c2=O)cc1OC |  |  |  |  | 73 nM | 68 nM | 597 nM | 203 nM | 594 nM | 85 nM |
